Reference: patent publication US20170105952A1, “HISTONE ACETYL TRANSFERASE ACTIVATORS AND HISTONE DEACETYLASE INHIBITORS IN THE TREATMENT OF ALCOHOLISM” (THE BOARD OF TRUSTEES OF THE UNIVERSITY OF ILLINOIS, priority 2006, published 2017)
Entries after “also recorded” stand apart in the source; their conditions may differ. Like-named read-outs stand apart in the source and are kept apart here.

Tests used:
[1] = tested on: ethanol-withdrawn SD rats; experiment: Elevated-plus maze (EPM) test of anxiety-like behaviors in ethanol-withdrawn rats; type: in vivo
Experimental: The effect of HDAC inhibition on anxiety-like behaviors of ethanol-withdrawn SD rats after chronic ethanol exposure was assayed using the class I and class II HDAC inhibitor trichostatin A (TSA). SD rats were fed with control or ethanol liquid diet, and ethanol-fed rats were withdrawn for 24 hours as described previously (Pandey et al, Alcohol Clin. Exp. Res. 27:396-409, 2003). Ethanol-withdrawn and control rats were treated with TSA or vehicle (1:5 dilution of DMSO with phosphate-buffered saline) two hours before measuring anxiety-like behaviors using the elevated-plus maze (EPM) test. The EPM is a cross-shaped elevated apparatus consisting of two open arms and two closed arms arranged directly opposite each other and connected to a central platform. To measure anxiety-like behaviors, a test rat was habituated for five-minutes in the test room and then placed on the central platform facing an open arm. The number of entries to each type of arm over a five-minute period was observed and recorded. EPM test results were reported as the mean±SEM of the percent of open-arm entries and the percent of time spent on the open arms. These collectively are referred to as open-arm activity. The general activity of each rat was measured by calculating the sum of open- and closed-arm entries. In the EPM test, ethanol withdrawal after chronic ethanol exposure produced increased anxiety-like behaviors as measured by a reduction in open-arm activities. […]
The effect of Sir-2 inhibition on anxiety-like behaviors in ethanol-withdrawn SD rats after chronic ethanol exposure was assayed by central amygdaloid infusion of the Sir-2 inhibitor, sirtinol. […] Sirtinol (0.5 μl of 25 μM sirtinol) or vehicle (0.5 μl of 0.3% DMSO diluted with artificial CSF) was infused into the CeA of ethanol-withdrawn and control rats, and anxiety was measured after two hours. Anxiety-like behaviors in rats were then measured in the EPM test. […]

[2] = tested on: ethanol-withdrawn SD rats; experiment: Light/dark box exploration test of anxiety-like behaviors in ethanol-withdrawn rats; type: in vivo
[3] = tested on: HDAC activity in the amygdala; experiment: HDAC activity in the amygdala of ethanol-withdrawn rats; type: in vivo
Experimental: The effect on HDAC activity in the amygdala of ethanol-withdrawn SD rats after chronic ethanol exposure was measured. SD rats were fed with control or ethanol liquid diet, and ethanol-fed rats were withdrawn for 24 hours. Ethanol-withdrawn and control rats were treated with TSA or vehicle two hours before measuring HDAC activity. Ethanol withdrawal after chronic ethanol exposure produced an increase in HDAC activity in the amygdala of rats.
The effect on HDAC activity in the amygdala of ethanol-withdrawn SD rats after chronic ethanol exposure was measured. SD rats were fed with control or ethanol liquid diet, and ethanol-fed rats were withdrawn for 24 hours. […] Two hours after injections, brains were collected to measure HDAC activity. The nuclear and cytosolic fractions of amygdala were prepared and HDAC activities were measured using an HDAC ELISA kit. Ethanol withdrawal after chronic ethanol exposure produced an increase in nuclear, but not cytosolic, HDAC activity in the amygdala of rats.

acetylated histone H3 [4] = experiment: Acetylated histone H3 protein levels in amygdaloid structures of ethanol-withdrawn rats (gold-immunolabeling); type: in vivo; conditions: for histone H3-K9 acetylation: SAHA 50 mg/kg intraperitoneally, FIG. 3
Experimental: (§1) The effect of HDAC inhibition on acetylated histone H3, CBP, and Sir-2 (HDAC III) level in ethanol-withdrawn SD rats after chronic ethanol exposure was assayed using trichostatin A (TSA). SD rats were fed control or ethanol liquid diet, and ethanol-fed rats were withdrawn for 24 hours. Ethanol-withdrawn and control rats were treated with TSA or vehicle, and protein levels were measured in amygdaloid structures by gold-immunolabeling. In the CeA and MeA, but not in the BLA, ethanol withdrawal produced significant reductions in protein levels of acetylated histone H3 and CBP-HAT, and produced an increase in protein levels of Sir-2. […] Thus, histone acetylation is normalized by TSA treatment due to inhibition of HDAC activity.
In the CeA and MeA, but not in the BLA, ethanol withdrawal produced significant reductions in protein levels of acetylated histone H3-K9.

CBP [5] = experiment: CBP protein levels in amygdaloid structures of ethanol-withdrawn rats (gold-immunolabeling); type: in vivo; conditions: TSA
Experimental: as §1

Sir-2 (HDAC III) = experiment: Sir-2 protein levels in amygdaloid structures of ethanol-withdrawn rats (gold-immunolabeling); type: in vivo; conditions: TSA
Experimental: as §1

NPY = NPY mRNA and protein levels in amygdaloid structures of ethanol-withdrawn rats; type: in vivo; conditions: TSA, reduction seen in CeA and MeA
Experimental: The effect of HDAC inhibition on NPY mRNA and protein levels in ethanol-withdrawn SD rats after chronic ethanol exposure was also assayed using trichostatin A (TSA). SD rats were fed control or ethanol liquid diet, and ethanol-fed rats were withdrawn for 24 hours. Ethanol-withdrawn and control rats were treated with TSA or vehicle, and mRNA and protein levels were measured in amygdaloid structures. In the CeA and MeA, but not in the BLA, ethanol withdrawal produced significant reductions in both mRNA and protein levels of NPY. […] Thus, NPY expression is also normalized by TSA treatment during ethanol withdrawal after chronic ethanol exposure.

[6] = tested on: alcohol-preferring (P) rats; experiment: Two-bottle voluntary alcohol intake in alcohol-preferring rats; type: in vivo; conditions: TSA 2 mg/kg intraperitoneal daily, last three days of 9% alcohol drinking
Experimental: (§2) The effect of HDAC inhibition on the alcohol consumption of alcohol-preferring (P) and non-preferring (NP) rats was assayed. Selective breeding has produced the P and NP rat lines with high and low alcohol preference, respectively (Li T. K, Lumeng L, Doolittle D P, Behav. Genet. 23:163-170, 1993; McKinzie D L, Nowak K L, Murphy J M, Li T K, Lumeng L, McBride W J, Alcohol Clin. Exp. Res. 22:1584-1590, 1998). P and NP rats were habituated to drink water equally from two bottles. One bottle was then replaced with 7% ethanol for the first three days and 9% ethanol for the next seven days. During the last three days of 9% alcohol drinking, rats were treated with TSA daily (2 mg/kg intraperitoneal injection). […] As a result of the large reduction in voluntary alcohol consumption by the alcohol-preferring animal model when treated with an HDAC inhibitor, it is expected that HDAC inhibitors also prevent the development of alcohol dependence.

non-preferring (NP) rats = experiment: Two-bottle voluntary alcohol intake in non-preferring rats; type: in vivo; conditions: TSA 2 mg/kg intraperitoneal daily, last three days of 9% alcohol drinking
Experimental: as §2

[7] = tested on: class I and class II HDACs; conditions: Yoshida et al 1990; cited from earlier work
Limk1 = Limk1 protein levels in amygdaloid structures of ethanol-withdrawn rats (gold-immunolabeling); type: in vivo; conditions: SAHA 50 mg/kg intraperitoneally, decrease seen in CeA and MeA, FIG. 5
Experimental: The effect on protein levels of Limk1 in the amygdala of ethanol-withdrawn SD rats after chronic ethanol exposure was measured. SD rats were fed with control or ethanol liquid diet, and ethanol-fed rats were withdrawn for 24 hours. […] Brains were collected after perfusion for Limk1 protein level measurement. Protein levels were measured in amygdaloid structures by gold-immunolabeling. Ethanol withdrawal, but not ethanol treatment, produced significant decreases in protein levels of Limk1 in the CeA and MeA, but not in the BLA.

HDACs in the amygdala = conditions: ethanol 1 g/kg intraperitoneal injection, after one hour
Experimental: (§3) The effect of acute ethanol exposure on HDAC activity, histone acetylation level, and CBP level was measured in Sprague-Dawley (SD) rats. Rats were injected with ethanol (1 g/kg intraperitoneal injection) or n-saline, and after one hour, anxiolytic responses were measured. […] The amygdala was then dissected out, and HDAC activity was measured.

Sprague-Dawley (SD) rats = conditions: ethanol 1 g/kg intraperitoneal injection vs n-saline, after one hour
Experimental: as §3

CBP [8] = conditions: acute ethanol vs n-saline
Experimental: (§4) The protein levels of acetylated histone H3, acetylated histone H4, and CBP in the CeA structures of n-saline- or acute ethanol-treated rats were measured by immunohistochemistry.

acetylated histone H3 [9] = conditions: acute ethanol vs n-saline
Experimental: as §4

acetylated histone H4 = conditions: acute ethanol vs n-saline
Experimental: as §4

Sir-2 = conditions: Landry et al 2000; Blander et al 2004; cited from earlier work
HAT = conditions: Mantelingu et al 2007; cited from earlier work
p300 HAT = p300 HAT (Homo sapiens, UniProt Q09472); conditions: Balasubramanyam et al 2003; cited from earlier work
HDAC = conditions: Balasubramanyam et al 2003; cited from earlier work

Chain of p300 HAT (Q09472 whole entry, species assumed): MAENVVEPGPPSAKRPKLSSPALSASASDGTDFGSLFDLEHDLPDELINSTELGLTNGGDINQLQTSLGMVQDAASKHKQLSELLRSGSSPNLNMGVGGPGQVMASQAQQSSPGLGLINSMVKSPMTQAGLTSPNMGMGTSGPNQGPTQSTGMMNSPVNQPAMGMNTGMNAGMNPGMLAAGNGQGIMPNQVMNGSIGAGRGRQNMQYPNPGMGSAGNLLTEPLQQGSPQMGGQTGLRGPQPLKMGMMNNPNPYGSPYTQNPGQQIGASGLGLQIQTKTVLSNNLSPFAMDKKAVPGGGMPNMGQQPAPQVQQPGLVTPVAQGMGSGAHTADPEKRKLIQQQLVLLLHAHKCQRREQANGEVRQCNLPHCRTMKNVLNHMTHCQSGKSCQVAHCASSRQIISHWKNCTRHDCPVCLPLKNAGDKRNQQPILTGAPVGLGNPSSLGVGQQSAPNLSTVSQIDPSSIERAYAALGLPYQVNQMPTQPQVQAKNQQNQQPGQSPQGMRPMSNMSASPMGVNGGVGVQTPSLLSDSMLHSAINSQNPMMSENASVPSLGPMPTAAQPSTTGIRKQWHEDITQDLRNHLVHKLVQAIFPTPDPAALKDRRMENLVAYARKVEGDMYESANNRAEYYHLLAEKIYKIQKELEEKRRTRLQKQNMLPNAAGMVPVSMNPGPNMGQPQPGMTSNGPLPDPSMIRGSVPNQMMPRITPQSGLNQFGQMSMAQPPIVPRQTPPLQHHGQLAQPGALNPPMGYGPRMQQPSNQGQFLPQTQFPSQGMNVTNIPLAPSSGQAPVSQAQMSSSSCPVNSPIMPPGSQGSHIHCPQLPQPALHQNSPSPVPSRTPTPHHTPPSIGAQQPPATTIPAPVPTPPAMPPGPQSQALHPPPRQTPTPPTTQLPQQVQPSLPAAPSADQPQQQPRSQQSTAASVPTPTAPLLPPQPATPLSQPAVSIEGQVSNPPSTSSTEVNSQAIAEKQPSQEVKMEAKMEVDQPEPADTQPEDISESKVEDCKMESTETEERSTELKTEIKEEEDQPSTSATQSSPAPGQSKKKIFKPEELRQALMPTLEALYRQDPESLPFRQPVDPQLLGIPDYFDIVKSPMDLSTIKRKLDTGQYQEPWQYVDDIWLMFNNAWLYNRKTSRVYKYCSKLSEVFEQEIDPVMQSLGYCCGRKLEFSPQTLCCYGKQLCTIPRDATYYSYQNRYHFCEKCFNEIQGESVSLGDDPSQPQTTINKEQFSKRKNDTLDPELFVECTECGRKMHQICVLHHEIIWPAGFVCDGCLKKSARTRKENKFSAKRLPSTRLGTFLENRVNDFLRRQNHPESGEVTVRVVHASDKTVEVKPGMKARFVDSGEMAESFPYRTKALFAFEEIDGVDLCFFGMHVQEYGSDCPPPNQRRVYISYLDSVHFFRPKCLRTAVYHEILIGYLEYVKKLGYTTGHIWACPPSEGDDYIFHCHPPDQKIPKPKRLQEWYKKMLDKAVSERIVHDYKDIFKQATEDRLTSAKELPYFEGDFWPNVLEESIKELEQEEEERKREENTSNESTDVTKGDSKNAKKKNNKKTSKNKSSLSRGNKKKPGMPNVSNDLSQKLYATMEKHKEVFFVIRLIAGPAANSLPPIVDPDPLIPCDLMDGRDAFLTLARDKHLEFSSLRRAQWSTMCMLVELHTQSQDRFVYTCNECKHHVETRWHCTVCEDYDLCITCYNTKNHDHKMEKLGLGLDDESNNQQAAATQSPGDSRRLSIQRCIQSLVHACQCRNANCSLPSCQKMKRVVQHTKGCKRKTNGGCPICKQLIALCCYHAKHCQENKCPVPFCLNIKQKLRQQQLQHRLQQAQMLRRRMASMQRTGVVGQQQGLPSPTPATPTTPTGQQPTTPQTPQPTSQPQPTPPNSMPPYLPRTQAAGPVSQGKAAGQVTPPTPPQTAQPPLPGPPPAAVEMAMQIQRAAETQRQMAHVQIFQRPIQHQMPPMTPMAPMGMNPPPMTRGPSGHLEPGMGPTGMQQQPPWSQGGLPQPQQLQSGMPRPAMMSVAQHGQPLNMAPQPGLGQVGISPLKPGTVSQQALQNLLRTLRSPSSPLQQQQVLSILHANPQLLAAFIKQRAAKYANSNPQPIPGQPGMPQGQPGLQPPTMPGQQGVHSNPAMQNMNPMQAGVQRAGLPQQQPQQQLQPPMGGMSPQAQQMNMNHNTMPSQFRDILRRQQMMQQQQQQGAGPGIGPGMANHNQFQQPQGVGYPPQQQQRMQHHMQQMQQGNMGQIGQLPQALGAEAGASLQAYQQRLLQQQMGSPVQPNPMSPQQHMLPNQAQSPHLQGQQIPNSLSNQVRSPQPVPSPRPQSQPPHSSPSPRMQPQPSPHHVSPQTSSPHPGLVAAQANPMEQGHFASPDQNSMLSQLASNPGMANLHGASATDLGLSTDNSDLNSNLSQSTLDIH

Compound: CC(/C=C/C(=O)NO)=C\[C@@H](C)C(=O)c1ccc(N(C)C)cc1 [TSA, trichostatin A]
- anxiety-like behaviors (open-arm activity) in EPM test ([1]; TSA two hours before test, 24 hours ethanol withdrawal after chronic ethanol): restored these anxiety-like behaviors to normal levels; also recorded: prevented the development of anxiety-like behaviors
- anxiety-like behaviors (time spent in the light box) ([2]; TSA, 24 hours ethanol withdrawal after chronic ethanol): significantly reduced these anxiety-like behaviors
- withdrawal-induced increase in HDAC activity in the amygdala ([3]; TSA two hours before measurement, 24 hours ethanol withdrawal): completely prevented this increase in HDAC activity; also recorded: normalized the increase in HDAC activity
- acetylated histone H3 levels (acetylated histone H3 [4]; TSA, reduction seen in CeA and MeA): rescued acetylated histone H3 levels; also recorded: normalized the reduction in acetylation of histone H3
- CBP levels (CBP [5]): did not modulate CBP and Sir-2 levels
- Sir-2 levels (Sir-2 (HDAC III)): did not modulate CBP and Sir-2 levels
- NPY mRNA and protein levels (NPY): restored NPY levels to normal; also recorded: normalized the reduction in NPY expression
- alcohol intake [6]: significantly attenuated the alcohol intake
- alcohol intake (non-preferring (NP) rats): not in low alcohol-drinking NP rats
- inhibition of class I and class II HDACs [7]: potently inhibits class I and class II HDACs

Compound: O=C(CCCCCCC(=O)Nc1ccccc1)NO [SAHA, suberoylanilide hydroxamic acid]
- anxiety-like behaviors (open-arm activity) in EPM test ([1]; SAHA 50 mg/kg intraperitoneally, 24 hours ethanol withdrawal, FIG. 1B): prevented these anxiety-like behaviors
- anxiety-like behaviors (time spent in the light box) ([2]; SAHA 50 mg/kg intraperitoneally, 24 hours ethanol withdrawal, FIG. 1A): significantly reduced these anxiety-like behaviors
- withdrawal-induced increase in nuclear HDAC activity in the amygdala ([3]; SAHA 50 mg/kg intraperitoneally, two hours after injection, nuclear fraction, HDAC ELISA kit, FIG. 2): attenuated this increase in nuclear HDAC activity
- histone H3-K9 acetylation (acetylated histone H3 [4]; BLA): had no effects on histone H3-K9 acetylation
- histone H3-K9 acetylation (acetylated histone H3 [4]; CeA and MeA): corrected the deficits in histone H3-K9 acetylation
- Limk1 protein levels (Limk1): normalized Limk1 levels

Compound: CCO [ethanol]
- inhibition of HDAC activity in the amygdala compared to n-saline-treated rats (HDACs in the amygdala): 36%
- anxiolytic responses (Sprague-Dawley (SD) rats): anxiolytic effects
- protein level of CBP (CBP [8]; BLA): not in basolateral amygdaloid (BLA) structures
- protein level of CBP (CBP [8]; CeA): increased protein levels
- protein level of CBP (CBP [8]; MeA): increased protein levels
- protein level of acetylated histone H3 (acetylated histone H3 [9]; BLA): not in basolateral amygdaloid (BLA) structures
- protein level of acetylated histone H3 (acetylated histone H3 [9]; CeA): increased protein levels
- protein level of acetylated histone H3 (acetylated histone H3 [9]; MeA): increased protein levels
- protein level of acetylated histone H4 (acetylated histone H4; CeA): increased protein levels
- protein level of acetylated histone H4 (acetylated histone H4; MeA): increased protein levels

Compound: CC(NC(=O)c1ccccc1/N=C/c1c(O)ccc2ccccc12)c1ccccc1 (stereo not shown) [sirtinol]
- anxiety-like behaviors (open-arm activity) in EPM test ([1]; 0.5 μl of 25 μM sirtinol infused into the CeA, two hours before test, 24 hours ethanol withdrawal): development of these anxiety-like behaviors was prevented
- inhibition of Sir-2 (Sir-2): specific inhibitor of Sir-2

Compound: CCOc1ccccc1C(=O)Nc1ccc(Cl)c(C(F)(F)F)c1 [CTB, N-(4-chloro-3-trifluoromethyl-phenyl)-2-ethoxy-benzamide]
- HAT activation (HAT): HAT activators

Compound: CCCCCCCCCCCCCCCc1cccc(OCC)c1C(=O)Nc1ccc(Cl)c(C(F)(F)F)c1 [CTPB, N-(4-chloro-3-trifluoromethyl-phenyl)-2-ethoxy-6-pentadecyl-benzamide]
- p300 HAT activity (p300 HAT): activate p300 HAT activity
- HDAC activity (HDAC): without affecting HDAC activity
